Test results taken from US9803164B2, “Megakaryocyte and platelet production from stem cells” (priority 2011, dated 2017).
Residues, ends and D or L forms follow the SMILES beside them. *: point of attachment. Cbz = O=C(OCc1ccccc1)*; CH2F = FC*

Key:
Format in all cases: cell-based
UCB derived CD34 cells = assay: Expansion of UCB derived CD34 enriched cells in serum-free suspension culture with reagents; conditions: control mean 40-fold, n=3; for CD34 fold expansion (mean): day 7 of culture, SR-1 0.75 μM, TEPA 5 μM, zVADfmk 100 nM, SCF, TPO, FLT3-ligand 50 ng/ml
Description: Umbilical cord blood units not suitable for clinical use were obtained from the New York Blood Center National Cord Blood Bank, where they were collected after informed consent in accord with the Declaration of Helsinki. Isolation of umbilical cord blood CD34 cells was performed using either a positive selection or a negative selection method. The positive selection method used has been described in G. Mattia et al., Different ploidy levels of megakaryocytes generated from peripheral or cord blood CD34+ cells are correlated with different levels of platelet release, 99(3) BLOOD 888 (February 2002). Briefly, mononuclear cells were layered on a Ficoll-Hypaque gradient (GE Healthcare, Barrington, Ill.), washed twice with phosphate-buffered saline (PBS) (Life Technologies) supplemented with 5% fetal bovine serum (FBS) (Life Technologies). To purify CD34 cells, the mononuclear selection fraction was subject to two cycles of immunomagnetic bead separation using a MINIMACS CD34 isolation kit (Miltenyi Biotech, Auburn, Calif.), according to manufacturer's recommendations. The purity of the sample ranged from 70% to 90% CD34 positive and was approximately 30% CD41 positive based on flow cytometry analysis.
The negative selection method was based on previously described methods where umbilical cord blood-derived CD34 cells were enriched by a negative selection method with the use of ROSETTESEP (Stem Cell Technologies, Vancouver, Canada). M. P. Avanzi et al., Optimizing megakaryocyte polyploidization by targeting multiple pathways of cytokinesis, 52(11) TRANSFUSION 2406 (November 2012). Briefly, cells were washed with phosphate buffered saline (PBS, Life Technologies) and incubated with ROSETTESEP reagent for 10 min at room temperature. Next, cells were layered on a Ficoll-Hypaque gradient, washed twice with phosphate-buffered saline. The final product was approximately 20% to 30% CD34 positive and 30% CD41 positive.
UCB derived CD34 enriched cells were plated at a density of 1×10^4 per well (24 well plate) in suspension culture and combined with one of the following reagents: STEM REGENIN-1 (StemCell Technologies, Vancouver, BC), 0.75 μM; copper chelator tetraethylenepentamine, 5 μM (TEPA) (Sigma Aldrich, St Louis, Mo.); or zVADfmk, 100 nM (Abcam, Cambridge, Mass.). Reagents were added with culture medium and cytokine cocktail on day 0, 4, 7 and 10 of culture. Additionally, in separate experiments, CD34 enriched cells were expanded on NANEX nanofiber membranes (Arteriocyte, Cleveland Ohio). […]
All flow cytometry experiments where performed with a BD FACS LSR FORTESSA machine (Becton Dickinson, San Jose, Calif.) and analyzed with BD FACSDIVA software (Becton Dickinson). […] Labeled cells were then analyzed and counted.

[1] = test system: megakaryocytes (CD41 cells); assay: Megakaryocyte ploidy by flow cytometry after induction of polyploidization; conditions: day 11; treated once on day 8; latrunculin 10 μg/ml or Y27632 10 μM; controls less than 10%; p=0.007, n=3
Description: (§1) At the completion of the megakaryocyte differentiation stage on day 8, megakaryocytes were stimulated to undergo polyploidization by adding either the actin polymerization inhibitor, latrunculin (Santa Cruz Biotechnologies, Dallas, Tex.), at a final concentration of 10 μg/ml, or the Rho-kinase inhibitor, Y27632 (Sigma Aldrich, St. Louis, Mo.), at 10 μM, and then culturing the cells for an additional 3 or 4 days.
Megakaryocyte ploidy was analyzed on day 11 of culture. Cells were labeled with Alexa 647-conjugated anti-CD41 antibody, incubated for 20 min on ice, fixed with 4% paraformaldehyde (Fisher Scientific) for 15 minutes and then washed with PBS. Next, cells were permeabilized with methanol 75% (Sigma Aldrich) for 1 hour at 4° C. and washed with PBS+BSA, 2%+NP40, 0.05% (Fischer Scientific) solution. Finally cells were treated with Propidium Iodide/RNase solution (Becton Dickinson) and incubated for 30 minutes in the dark at room temperature before flow cytometry analysis.

megakaryocytes = assay: Proplatelet formation quantification (grid strategy); conditions: day 11; treated on day 8; p=0.02, n=3
Description: as §1
Proplatelet formation was quantified on day 11 of culture using a grid strategy, as previously described by M. P. Avanzi et al., Rho kinase inhibition drives megakaryocyte polyploidization and proplatelet formation through MYC and NFE2 downregulation, 164(6) BR. J HAEMATOL. 867 (March 2014). Briefly, using an inverted light microscope (Olympus CKX41) 10 random-field images were acquired at 40× magnification from each well. All megakaryocytes present on each field were counted. A counting grid with 25 μm squares was used to enumerate the number of proplatelet processes. Each proplatelet segment inside each square was counted and the sum of all segments in 10 random field images (40× magnification) was used for comparison. From these numbers, a measure of proplatelet density per cell per unit area was generated and used to compare the results of different culture conditions.

[2] = test system: platelets collected from the bioreactor; assay: Platelet surface expression of P-selectin after activation, flow cytometry; conditions: PMA 10 μg/mL, 15 min, room temperature; 25% at baseline
Description: Platelets collected from the bioreactor were tested for their function based on the externalization of P-Selectin after activation with phorbol myristate acetate (PMA) using flow cytometry. Platelets were collected in eppendorf tubes, labeled with Alexa 647-conjugated anti-CD41 antibody, PE-conjugated anti-CD-62P (Becton Dickinson) and a live cell stain, Calcein AM (Sigma-Aldrich) for 15 min at room temperature. Next, platelets were activated using PMA (Sigma Aldrich) 10 μg/mL for 15 min at room temperature. Cells were then analyzed by flow cytometry for P-Selectin externalization. Anti-Y1-PE (Becton Dickinson) was used as an isotype control.

| Molecule | CD34 fold expansion (mean) (UCB derived CD34 cells) | Proportion of megakaryocytes with ploidy >8 [1] | Proplatelets generated compared with control megakaryocytes (megakaryocytes) | other results |
| --- | --- | --- | --- | --- |
| CC(C)n1cnc2c(NCCc3ccc(O)cc3)nc(-c3csc4ccccc34)nc21 [SR-1, stem regenin-1] | 85 fold |  |  | CD34 fold expansion versus control culture (significance) (UCB derived CD34 cells; day 7): not significantly different |
| COC(=O)CC(NC(=O)C(C)NC(=O)C(NC(=O)OCc1ccccc1)C(C)C)C(=O)CF (stereo not drawn) [zVADfmk, benzyloxycarbonyl-Val-Ala-Asp (OMe) fluoromethylketone] (Cbz-Val-Ala-Asp(OMe)-CH2F; configuration not given here) | 25 fold |  |  |  |
| latrunculin |  | 30% | significantly more |  |
| C[C@@H](N)[C@H]1CC[C@H](C(=O)Nc2ccncc2)CC1 [Y27632] |  | 30% | significantly more |  |
| NCCNCCNCCNCCN [TEPA, tetraethylenepentamine] | 19 fold |  |  |  |
| CCCCCCCCCCCCCC(=O)O[C@@H]1[C@@H](C)[C@@]2(O)[C@@H](C=C(CO)C[C@]3(O)C(=O)C(C)=C[C@@H]23)[C@@H]2C(C)(C)[C@]12OC(C)=O [PMA, phorbol 12-myristate 13-acetate] |  |  |  | Particles expressing p-selectin after stimulation [2]: 65% |
